Publication PMC7281150, “Inspired by Sea Urchins: Warburg Effect Mediated Selectivity of Novel Synthetic Non-Glycoside 1,4-Naphthoquinone-6S-Glucose Conjugates in Prostate Cancer” (Marine Drugs, 2020)
Converted amounts (≈) assume the structure as drawn. Read-outs that look alike come from different tables or passages of the source.

Tests used:
[1] = tested on: 22Rv1 cells; test: Western blotting of protein expression; type: cell-based, human; conditions: for cleavage of caspase-3 (Western blotting) / p21 expression (Western blotting) / PARP cleavage (Western blotting): 22Rv1, 48 h; for PARP cleavage (Western blotting): concentrations close to IC50s
Experimental: (§1) Cells (10^6 cells/well) were seeded in Petri dishes (ø 6 cm) and incubated overnight. The cells were treated with the investigational drugs in fresh culture media (5 mL/dish) for 48 h. Then, cells were harvested by scratching and lysed in the lysis buffer (1% NP-40, 50 mM Tris-HCl (pH 7.6), 0.88% NaCl, 0.25% sodium cholate, 1 mM Na3VO4, 0.1 mM PMSF, protease inhibitors cocktail (cOmplete Mini EDTA-free EASYpacks, Roche, Mannheim, Germany)). Proteins were extracted and diluted with lysis buffer and loading dye, heated 5 min at 99 °C and subjected to electrophoresis in gradient Mini-PROTEAN® TGX Stain-Free^TM gels (Bio-Rad, Hercules, CA, USA). Proteins were transferred from gel to 0.2 µm pore PVDF membrane using Trans-Blot® Turbo^TM RTA Mini PVDF Trans kit (Bio-Rad) and Trans-Blot® Turbo^TM Blotting System (Bio-Rad) according to the manufactures protocol. The membrane was blocked (5% BSA in 0.05% Tween-20/TBS), treated with primary and secondary antibodies, and the signals were detected using the ECL chemiluminescence system (Thermo Scientific, Rockford, IL, USA). All procedures were performed according to the manufacturer′s protocols.

[2] = tested on: 22Rv1 cells; test: MTT cytotoxicity in 22Rv1 cells with or without N-acetyl-L-cysteine; type: cell-based, human; conditions: without NaC, FBS- and glucose-free media, 48 h, read-out: IC50 (viability of 22Rv1 cells)
Experimental: (§2) Cell viability was determined by MTT assay. Cells were pre-incubated overnight in 96-well plates (6 × 10^3 cells/well in 100 μL/well). Then, the medium was replaced with fresh medium containing the determined compounds (100 μL/well), and cells were incubated for the indicated time. Next, 10 μL/well of (3-(4,5-dimethylthiazol-2-yl)-2,5-diphenyltetrazolium bromide) reagent were added. After 2–4 h of incubation, the media was aspirated and the plates were dried. Fifty microliters per well of DMSO were added to each well and the cell viability was measured using Infinite F200PRO reader (TECAN, Männedorf, Switzerland). Results were calculated by The GraphPad Prism software v. 7.05 (GraphPad Prism software Inc., La Jolla, CA, USA) and are represented as IC50 of the compounds against control cells treated with the solvent alone.

[3] = tested on: 22Rv1 cells; test: Cell fractionation (mitochondrial, cytoplasmic, total) with Western blotting; type: cell-based, human; conditions: 22Rv1, 48 h
Experimental: as §1
The separation of cellular nuclear, mitochondrial, and cytosolic fractions was performed using the Cell Fractionation Kit ab109719 (abcam, Cambridge, MA, USA). […]

[4] = tested on: 22Rv1 cells; test: Analysis of intracellular ROS level (CM-H2DCFDA, FACS); type: cell-based, human; conditions: 2 h
Experimental: Intracellular ROS levels were accessed using the ROS-sensitive CM-H2DCFDA reagent (Cat. No. C6827, Molecular probes, Invitrogen, Eugene, OR, USA). The experiment was performed as previously described with slight modifications. In brief, 22Rv1 cells (10^5 cells/well) were seeded in 12-well plates and incubated overnight. The media was changed with freshly made pre-warmed staining solution (4 µM CM-H2DCFDA/PBS, 0.5 mL/well) and incubated in the dark (37 °C, 5% CO2) for 30 min. Then, the staining solution was exchanged with 1 mL/well of pre-warmed PBS containing the investigated compounds or H2O2 (positive control) at the indicated concentrations and the cells were incubated for 2 h. Next, the cells were trypsinized, resuspended in pre-warmed PBS (200 µL/sample) and immediately analyzed by FACS according to the manufacture′s protocol.

[5] = tested on: PC-3 cells; type: cell-based, human; conditions: PC-3, zVAD 100 µM, 48 h
[6] = tested on: 22Rv1 cells; test: Analysis of mitochondrial membrane potential (JC-1, FACS); type: cell-based, human
Experimental: The drop down of mitochondrial membrane potential (ΔΨm) was measured using staining with ΔΨm-sensitive JC-1 dye (5,5′,6,6′-Tetrachloro-1,1′,3,3′-tetraethyl-imidacarbocyanine iodide) and flow cytometry technique. Cells (10^5 cells/well) were seeded in 12-well plates and incubated overnight. […] The cells were trypsinized, pelleted, resuspended in 100 µL of 2 µM JC-1/PBS, incubated for 1 h (37 °C, 5% CO2, in the dark), and analyzed by flow cytometry technique.

[7] = tested on: human drug-resistant prostate cancer PC-3 cells; test: MTT cytotoxicity in PC-3 cells; type: cell-based; conditions: for IC50: 24 h, read-out: IC50 (viability of PC-3 cells)
Experimental: as §2

[8] = tested on: PC-3 cells; test: Glucose uptake assay (2-NBDG), plate reader-based measurement; type: cell-based, human; conditions: PC-3, 24 h
Experimental: (§3) The effects of the synthesized substance on glucose uptake were evaluated using the Glucose Uptake Cell-Based Assay Kit (Cayman chemicals, Ann Arbor, MI, USA) and two different methods. (a) Plate reader-based measurement: PC-3 cells (12 × 10^3 cells/well) were seeded in two 96-well plates, incubated overnight, and treated with the investigated drugs in 100 µL/well of glucose-free 0.1% FBS/RPMI media for 24 h. Then, the 10 µL/well of either 2-NBDG solution (2-deoxy-2-[(7-nitro-2,1,3-benzoxadiazol-4-yl)amino]-D-glucose, 5 mg/mL, for glucose uptake measurements) or vehicle solution (for cell viability measurements) in glucose-free 0.1% FBS/RPMI media were added to each well. […] Then, for glucose uptake measurements, the 100 µL/well of PBS were added and the fluorescence was measured using Infinite F200PRO reader (TECAN, Männedorf, Switzerland); or, for the cell viability measurements, 100 µL/well of media containing MTS reagent were added to the cells and viability was measured as described before. Glucose uptake rate was normalized to the cell viability measured by MTS assay in order to measure the uptake rate exclusively in the viable cells. (b) FACS-based readout: The experiment was performed as described before. […] The plates were then incubated with 2-NBDG solution, the cells were harvested by trypsination, washed, stained with PI, and analyzed using a flow cytometry.

[9] = tested on: PC-3 cells; test: Glucose uptake assay (2-NBDG), FACS-based readout; type: cell-based, human; conditions: PC-3, 24 h
Experimental: as §3

[10] = tested on: 22Rv1 cells; test: Analysis of cell cycle progression and DNA fragmentation (PI staining, FACS); type: cell-based, human; conditions: 22Rv1, 48 h
Experimental: Cells (2 × 10^5 cells/well) were pre-incubated overnight in 6-well plates. Then, cells were treated with the substances in 2 mL of fresh culture media/well for 48 h. Cells were harvested by trypsination, fixed in 70% EtOH, stained with PI, and analyzed by FACS Calibur (BD Bioscience, San Jose, CA, USA). The results were quantified using BD Bioscience Cell Quest Pro v.5.2.1. software (BD Bioscience, San Jose, CA, USA). The sub-G1 population was considered to reflect apoptotic cells (containing fragmented DNA).

[11] = tested on: five prostate cancer (LNCaP, 22Rv1, VCaP, PC-3, and DU145) vs. five non-cancer (PNT2, RWPE-1, HEK 293T, MRC-9, and HUVEC) cell lines; test: Mean MTT cytotoxicity in five prostate cancer vs. five non-cancer cell lines; type: cell-based, human; conditions: 48 h
Experimental: as §2

[12] = tested on: human cancer HeLa S3 cells; set-up: method as in PMID 3437287; conditions: cited from earlier work
[13] = glucose-containing media (+Glc, 2 g/L)

Compound | cleavage of caspase-3 (Western blotting) [1] | p21 expression (Western blotting) [1] | PARP cleavage (Western blotting) [1] | IC50 [2] [µM] | effect of co-treatment with pan-caspase inhibitor zVAD on cytotoxic effects [5] | IC50 [7, 13] [µM] | IC50 ([7]; glucose-free media (−Glc)) [µM] | glucose uptake (2-NBDG, plate reader), normalized to cell viability [8] | glucose uptake (2-NBDG, single cells by flow cytometry), normalized to cell viability [9] | DNA fragmentation (sub-G1 peak) [10] | cell cycle progression [10] | other results
6-(1,2,3,4-Tetra-O-acetyl-6-deoxy-β-D-glucopyranos-6-ylthio)-5,8-dihydroxy-7-methyl-2,3-dimethoxy-1,4-naphthoquinone [SAB-13] | cleavage of caspase-3 was observed | upregulation of p21 | PARP cleavage | 2.3 ± 0.3 | antagonized the cytotoxic effects | 10.8 ± 1.7 | 5 ± 1.1 | inhibition of glucose uptake | inhibition of glucose uptake | DNA fragmentation | G2/M-cell cycle arrest | caspase-9 activation (cleaved caspase-9, Western blotting) ([1]; 22Rv1, 2 h): activated caspase-9 shortly after treatment; redistribution of mitochondrial proteins (cytochrome C, AIF) to cytoplasm [3]: release of cytotoxic mitochondrial proteins to cellular cytoplasm; ROS level (CM-H2DCFDA, FACS) ([4]; 22Rv1, 0.5 μM): 31.2±3.2%; cells containing depolarized mitochondria (JC-1) ([6]; 22Rv1, 2 μM, 2 h): 47.3±6.1%; cells containing depolarized mitochondria (JC-1) ([6]; 22Rv1, 2 μM, 48 h): 69.5±8.1%; higher cytotoxicity compared with SAB-14 ([7]; screening, MTT, 48 h): ~ 10 fold
6-(6-Deoxy-D-glucopyranos-6-ylthio)-5,8-dihydroxy-7-methyl-2,3-dimethoxy-1,4-naphthoquinone [SAB-14] | cleavage of caspase-3 was observed | upregulation of p21 | PARP cleavage | 4.6 ± 2.9 | antagonized the cytotoxic effects | 22.6 ± 7.3 | 4.7 ± 1.4 | inhibition of glucose uptake | inhibition of glucose uptake | DNA fragmentation | G2/M-cell cycle arrest | ROS level (CM-H2DCFDA, FACS) ([4]; 22Rv1, 5 μM): 9.9±0.4%; cells containing depolarized mitochondria (JC-1) ([6]; 22Rv1, 10 μM, 2 h): 20.4±3.6%; cells containing depolarized mitochondria (JC-1) ([6]; 22Rv1, 10 μM, 48 h): 47±1.0%; selectivity index (SI), IC50 (PNT2)/IC50 (PC-3) ([7]; MTT, 48 h): > 2; selectivity to prostate cancer cells vs. non-cancer lines (mean cytotoxicity) [11]: higher selectivity to the cancer cells
N#CC(C#N)=NNc1cccc(Cl)c1 [CCCP, 2-[2-(3-chlorophenyl)hydrazinylyidene]propanedinitrile, reference compound] | – | – | – | – | – | – | – | – | – | – | – | cells containing depolarized mitochondria (JC-1) ([6]; 22Rv1, 50 µM, 2 h): 94±0.3%; cells containing depolarized mitochondria (JC-1) ([6]; 22Rv1, 50 µM, 48 h): 92.1±1.8%
OO [H2O2, reference compound] | – | – | – | – | – | – | – | – | – | – | – | ROS level (CM-H2DCFDA, FACS) ([4]; 22Rv1, 200 μM): 68.4±1.5%
COC1=C(OC)C(=O)c2c(O)c(OC)cc(O)c2C1=O [tricrozarin B] | – | – | – | – | – | – | – | – | – | – | – | IC50 (colony formation) [12]: 7 ng/mL (≈ 0.025 µM)
